This note sets out measurements from article PMC9010685, “Sensor dimer disruption as a new mode of action to block the IRE1-mediated unfolded protein response” (Computational and Structural Biotechnology Journal, 2022).

This test concerns the target T1, IRE1 (IRE1α, Inositol requiring enzyme 1α) (Homo sapiens, UniProt O75460).
T1 construct: gene ERN1; recombinant IRE1 (aa 465–977, His & GST Tag); cytosolic domain
In words: in vitro fluorescence RNase assay, cleavage of XBP1 mini-probe (Cy5). It counts as biochemical.

Where two headings read alike, the source gives them in different places.

T1 sequence (O75460 465-977): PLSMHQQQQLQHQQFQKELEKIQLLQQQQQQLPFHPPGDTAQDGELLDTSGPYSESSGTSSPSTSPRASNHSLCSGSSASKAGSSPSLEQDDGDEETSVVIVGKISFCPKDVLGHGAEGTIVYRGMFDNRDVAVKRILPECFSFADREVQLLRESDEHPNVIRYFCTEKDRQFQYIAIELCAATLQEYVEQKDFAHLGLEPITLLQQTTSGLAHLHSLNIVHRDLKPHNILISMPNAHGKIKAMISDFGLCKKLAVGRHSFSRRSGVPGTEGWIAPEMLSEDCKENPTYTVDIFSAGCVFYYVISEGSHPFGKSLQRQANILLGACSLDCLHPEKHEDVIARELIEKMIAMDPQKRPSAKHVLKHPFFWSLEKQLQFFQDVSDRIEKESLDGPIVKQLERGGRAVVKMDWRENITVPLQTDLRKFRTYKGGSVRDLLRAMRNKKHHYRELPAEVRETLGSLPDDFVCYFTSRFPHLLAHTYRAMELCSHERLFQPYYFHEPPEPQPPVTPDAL

As a reminder, the IC50 is the midpoint of a concentration-inhibition curve. In turn, `Nc1nc2[nH]cc(CCc3ccc(C(=O)N[C@@H](CCC(=O)O)C(=O)O)cc3)c2c(=O)[nH]1` [PMT, pemetrexed] showed an IC50 of 260 ± 200 nM.
Molecule `C[C@@H]1O[C@@H](Oc2c(-c3ccc(O)c(O)c3)oc3cc(O)cc(O)c3c2=O)[C@H](O)[C@H](O)[C@H]1O` [Qi, quercitrin] gave an IC50 of 230 ± 100 nM.
Consider `NC[C@@H]1O[C@H](O[C@H]2[C@@H](O)[C@H](O[C@@H]3[C@@H](O)[C@H](N)C[C@H](N)[C@H]3O[C@H]3O[C@H](CN)[C@@H](O)[C@H](O)[C@H]3N)O[C@@H]2CO)[C@H](N)[C@@H](O)[C@@H]1O` [neomycin], for which the IC50 (read-out: IC50) amounted to 330 ± 300 nM.
Take `C[C@@H]1O[C@@H](OC[C@H]2O[C@@H](Oc3c(-c4ccc(O)c(O)c4)oc4cc(O)cc(O)c4c3=O)[C@H](O)[C@@H](O)[C@@H]2O)[C@H](O)[C@H](O)[C@H]1O` [rutin]: 530 ± 300 nM corresponded to half-maximal inhibition (IC50).
